The source of these data is patent US20250235460A1, “COMBINATION THERAPY USING GLUCOSE-DEPENDENT INSULINOTROPIC POLYPEPTIDE RECEPTOR ANTAGONIST COMPOUNDS AND GLP-1 RECEPTOR AGONIST COMPOUNDS” (Pfizer Inc., priority 2024, published 2025).

In experiment [1] the target is human GLP-1R (Homo sapiens, UniProt P43220, L260F). The experiment in a line: CHO GLP-1R Clone C6 cAMP HTRF agonist assay (Assay 2, low receptor density). In kind it is cell-based. Particulars: for EC50: geometric mean; for Emax: CHO GLP-1R clone C6, arithmetic mean, relative to saturating GLP-1 (1 μM). The text has this:
In Table 5 and Table 6, assay data are presented to two (2) significant figures as the geometric mean (EC50s) and arithmetic mean (Emax) based on the number of replicates listed (Number). A blank cell means there was no data for that Example or the Emax was not calculated.

The target of experiment [2] is human GLP-1R (Homo sapiens, UniProt P43220, G168S). Description: CHO GLP-1R Clone H6 cAMP HTRF agonist assay (Assay 1, high receptor density). Format: cell-based. Particulars: for EC50: geometric mean; for Emax: CHO GLP-1R clone H6, arithmetic mean, relative to saturating GLP-1 (1 μM), read-out: Assay 1 Emax (%). Put shortly: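 Two significant figures are used throughout. Each EC50 is the geometric mean of its replicates, and each Emax is the arithmetic mean.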
Sequence of human GLP-1R (Homo sapiens, UniProt P43220, G168S) (P43220 24-463 G168S): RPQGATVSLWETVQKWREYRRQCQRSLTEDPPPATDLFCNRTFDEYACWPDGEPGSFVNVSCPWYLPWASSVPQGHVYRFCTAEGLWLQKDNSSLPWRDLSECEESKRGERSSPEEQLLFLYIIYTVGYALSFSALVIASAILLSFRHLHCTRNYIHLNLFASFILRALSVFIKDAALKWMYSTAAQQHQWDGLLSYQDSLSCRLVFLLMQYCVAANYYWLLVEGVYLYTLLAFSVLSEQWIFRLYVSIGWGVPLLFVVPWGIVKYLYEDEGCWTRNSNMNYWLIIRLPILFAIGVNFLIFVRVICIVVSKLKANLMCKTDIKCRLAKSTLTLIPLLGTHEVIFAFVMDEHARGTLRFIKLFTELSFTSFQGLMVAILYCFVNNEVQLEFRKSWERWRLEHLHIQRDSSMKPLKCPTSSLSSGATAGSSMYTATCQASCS

Sequence of human GLP-1R (Homo sapiens, UniProt P43220, L260F) (P43220 24-463 L260F): as the sequence (P43220 24-463 G168S) above, with S145G, L237F counted along it

For orientation: EC50 means the concentration needed to bring the measured effect to its halfway point. A lower EC50 goes with greater potency. As a reminder, the Emax is the size of the effect at its maximum, as opposed to the concentration needed. Take `C[C@H]1CN(c2cccc(OCc3ccc(C#N)cc3F)n2)CCN1Cc1nc2ccc(C(=O)O)cc2n1Cc1cocn1` [Compound 241B, 2-{[(2S)-4-{6-[(4-cyano-2-fluorobenzyl)oxy]pyridin-2-yl}-2-methylpiperazin-1-yl]methyl}-1-(1,3-oxazol-4-ylmethyl)-1H-benzimidazole-6-carboxylic acid]: the EC50 in experiment [1] (CHO GLP-1R clone C6, cAMP HTRF) came to 160 nM; in experiment [2] (CHO GLP-1R clone H6, cAMP HTRF), 9.4 nM. For the same molecule, the Emax in experiment [1] came to 71%; in experiment [2] it was 69%.
As to `C[C@H]1CN(c2cccc(OCc3ccc(C#N)cc3F)n2)CCN1Cc1nc2ccc(C(=O)O)cc2n1Cc1cncn1C` [Compound 249B, 2-{[(2S)-4-{6-[(4-cyano-2-fluorobenzyl)oxy]pyridin-2-yl}-2-methylpiperazin-1-yl]methyl}-1-[(1-methyl-1H-imidazol-5-yl)methyl]-1H-benzimidazole-6-carboxylic acid], the EC50 in experiment [1] (CHO GLP-1R clone C6, cAMP HTRF) stood at 35 nM; in experiment [2] (CHO GLP-1R clone H6, cAMP HTRF), 1.6 nM. Besides, the Emax in experiment [1] came to 78%; in experiment [2], 84%.
`O=C(O)c1ccc2nc(CN3CCC(c4cccc(OCc5ccc(F)cc5F)n4)CC3)n(Cc3ncco3)c2c1` [Compound 149B, 2-[(4-{6-[(2,4-difluorobenzyl)oxy]pyridin-2-yl}piperidin-1-yl)methyl]-1-(1,3-oxazol-2-ylmethyl)-1H-benzimidazole-6-carboxylic acid]: the EC50 in experiment [1] (CHO GLP-1R clone C6, cAMP HTRF) was greater than 15000 nM; in experiment [2] (CHO GLP-1R clone H6, cAMP HTRF), 770 nM. Further, the Emax in experiment [1] was determined as 100%; in experiment [2] it was 78%.
As to `Cc1nnc(CCn2c(CN3CCC(c4cccc(OCc5ccc(Cl)cc5F)n4)CC3)nc3ccc(C(=O)O)cc32)o1` [Compound 253B, 2-[(4-{6-[(4-chloro-2-fluorobenzyl)oxy]pyridin-2-yl}piperidin-1-yl)methyl]-1-[2-(5-methyl-1,3,4-oxadiazol-2-yl)ethyl]-1H-benzimidazole-6-carboxylic acid], the EC50 in experiment [1] (CHO GLP-1R clone C6, cAMP HTRF) was determined as 20 nM; in experiment [2] (CHO GLP-1R clone H6, cAMP HTRF) it was 2 nM. For the same molecule, the Emax in experiment [1] was found to be 87%; in experiment [2], 84%.
For `C[C@H]1CN(c2cccc(OCc3ccc(Cl)cc3F)n2)CCN1Cc1nc2ccc(C(=O)O)cc2n1C[C@@H]1CCO1` [Compound 135B, 2-{[(2S)-4-{6-[(4-chloro-2-fluorobenzyl)oxy]pyridin-2-yl}-2-methylpiperazin-1-yl]methyl}-1-[(2S)-oxetan-2-ylmethyl]-1H-benzimidazole-6-carboxylic acid], the EC50 in experiment [1] (CHO GLP-1R clone C6, cAMP HTRF) came out at 5600 nM; in experiment [2] (CHO GLP-1R clone H6, cAMP HTRF), 260 nM. The Emax is 86% in experiment [1] and 88% in experiment [2].
The matching figures for `O=C(O)c1ccc2nc(CN3CCC(c4cccc(OCc5ccc(Cl)cc5F)n4)CC3)n(CC3CCC3)c2c1` [Compound 291B, 2-[(4-{6-[(4-chloro-2-fluorobenzyl)oxy]pyridin-2-yl}piperidin-1-yl)methyl]-1-(cyclobutylmethyl)-1H-benzimidazole-6-carboxylic acid]: 1200 nM, 54 nM, 82% and 77%.
The like results for `O=C(O)c1ccc2nc(CN3CCN(c4cccc(OCc5ccc(Cl)cc5F)n4)CC3)n(Cc3cnco3)c2c1` [Compound 158B, 2-[(4-{6-[(4-chloro-2-fluorobenzyl)oxy]pyridin-2-yl}piperazin-1-yl)methyl]-1-(1,3-oxazol-5-ylmethyl)-1H-benzimidazole-6-carboxylic acid] were, in that order, 190 nM, 14 nM, 83% and 72%.
The matching figures for `COCCn1c(CN2CCN(c3cccc(OCc4ccc(Cl)cc4F)n3)CC2C(F)(F)F)nc2ccc(C(=O)O)cc21` (stereo not drawn) [Compound 348B, 2-((4-(6-((4-Chloro-2-fluorobenzyl)oxy)pyridin-2-yl)-2-(trifluoromethyl)piperazin-1-yl)methyl)-1-(2-methoxyethyl)-1H-benzo[d]imidazole-6-carboxylic acid]: 2100 nM, 54 nM, 100% and 81%.
Consider `C[C@H]1CN(c2cccc(OCc3ccc(C#N)cc3F)n2)CCN1Cc1nc2ccc(C(=O)O)cc2n1CC1CCCO1` (stereo partly drawn) [Compound 364B, 2-{[(2S)-4-{6-[(4-cyano-2-fluorobenzyl)oxy]pyridin-2-yl}-2-methylpiperazin-1-yl]methyl}-1-(tetrahydrofuran-2-ylmethyl)-1H-benzimidazole-6-carboxylic acid], for which the EC50 was 20 nM in experiment [1] (CHO GLP-1R clone C6, cAMP HTRF) and 1.4 nM in experiment [2] (CHO GLP-1R clone H6, cAMP HTRF).
Turning to `CC1CN(c2cccc(OCc3ccc(Cl)cc3F)n2)CCN1Cc1nc2ccc(C(=O)O)cc2n1Cc1cocn1` (stereo in doubt) [Compound 240B, 2-{[(2S)-4-{6-[(4-chloro-2-fluorobenzyl)oxy]pyridin-2-yl}-2-methylpiperazin-1-yl]methyl}-1-(1,3-oxazol-4-ylmethyl)-1H-benzimidazole-6-carboxylic acid], the EC50 came to 16 nM in experiment [1] (CHO GLP-1R clone C6, cAMP HTRF) and 0.5 nM in experiment [2] (CHO GLP-1R clone H6, cAMP HTRF). Further, the Emax in experiment [1] is 86%; in experiment [2], 78%.
For the molecule `N#Cc1ccc(COc2cccc(C3CCN(Cc4nc5ccc(C(=O)O)cc5n4C[C@@H]4CCCO4)CC3)n2)c(F)c1` [Compound 124B, 2-[(4-{6-[(4-cyano-2-fluorobenzyl)oxy]pyridin-2-yl}piperidin-1-yl)methyl]-1-[(2S)-tetrahydrofuran-2-ylmethyl]-1H-benzimidazole-6-carboxylic acid], the EC50 came to 110 nM in experiment [1] (CHO GLP-1R clone C6, cAMP HTRF) and 6.4 nM in experiment [2] (CHO GLP-1R clone H6, cAMP HTRF). Further, the Emax in experiment [1] was found to be 94%; in experiment [2], 90%.
As to `Cn1cnnc1Cn1c(CN2CCC(c3cccc(OCc4ccc(Cl)cc4F)n3)CC2)nc2ccc(C(=O)O)cc21` [Compound 345B, 2-[(4-{6-[(4-chloro-2-fluorobenzyl)oxy]pyridin-2-yl}piperidin-1-yl)methyl]-1-[(4-methyl-4H-1,2,4-triazol-3-yl)methyl]-1H-benzimidazole-6-carboxylic acid], the EC50 in experiment [1] (CHO GLP-1R clone C6, cAMP HTRF) was found to be 150 nM; in experiment [2] (CHO GLP-1R clone H6, cAMP HTRF), 6.1 nM. Besides, the Emax was 97% in experiment [1] and 89% in experiment [2].
`CCn1cncc1Cn1c(CN2CCC(c3cccc4c3OC(C)(c3ccc(Cl)cc3F)O4)CC2)nc2ccc(C(=O)O)cc21` (single isomer, unassigned; ent-1) [Compound 21B, Ammonium 2-({4-[2-(4-chloro-2-fluorophenyl)-2-methyl-1,3-benzodioxol-4-yl]piperidin-1-yl}methyl)-1-[(1-ethyl-1H-imidazol-5-yl)methyl]-1H-benzimidazole-6-carboxylate, ENT-1]: the EC50 in experiment [1] (CHO GLP-1R clone, low receptor density, cAMP HTRF) is 1.1 nM; in experiment [2] (CHO GLP-1R clone, cAMP HTRF) it was 0.079 nM.
Consider `N#Cc1ccc(COc2cccc(N3CCN(Cc4nc5ccc(C(=O)O)cc5n4Cc4ncco4)CC3)n2)c(F)c1` [Compound 140B, 2-[(4-{6-[(4-cyano-2-fluorobenzyl)oxy]pyridin-2-yl}piperazin-1-yl)methyl]-1-(1,3-oxazol-2-ylmethyl)-1H-benzimidazole-6-carboxylic acid], for which the EC50 was 150 nM in experiment [1] (CHO GLP-1R clone C6, cAMP HTRF) and 36 nM in experiment [2] (CHO GLP-1R clone H6, cAMP HTRF). For the same molecule, the Emax turned out to be 92% in experiment [1] and 84% in experiment [2].
In the case of `N#Cc1ccc(COc2cccc(C3CCN(Cc4nc5ccc(C(=O)O)cc5n4Cc4cnco4)CC3)n2)c(F)c1` [Compound 141B, 2-[(4-{6-[(4-cyano-2-fluorobenzyl)oxy]pyridin-2-yl}piperidin-1-yl)methyl]-1-(1,3-oxazol-5-ylmethyl)-1H-benzimidazole-6-carboxylic acid], the EC50 in experiment [1] (CHO GLP-1R clone C6, cAMP HTRF) came to 150 nM; in experiment [2] (CHO GLP-1R clone H6, cAMP HTRF) it was 6 nM. Besides, the Emax in experiment [1] is 84%; in experiment [2] it was 73%.
As for `COCCn1c(CN2CCN(c3ccc(F)c(OCc4ccc(C#N)cc4)n3)C[C@@H]2C)nc2ccc(C(=O)O)cc21` [Compound 175B, 2-{[(2S)-4-{6-[(4-cyanobenzyl)oxy]-5-fluoropyridin-2-yl}-2-methylpiperazin-1-yl]methyl}-1-(2-methoxyethyl)-1H-benzimidazole-6-carboxylic acid], the EC50 in experiment [1] (CHO GLP-1R clone C6, cAMP HTRF) stood at 2100 nM; in experiment [2] (CHO GLP-1R clone H6, cAMP HTRF), 170 nM. The Emax was determined as 71% in experiment [1] and 78% in experiment [2].
Regarding `O=C(O)c1ccc2nc(CN3CCC(c4cccc(OCc5ccc(F)cc5F)n4)CC3)n(C[C@@H]3CCO3)c2c1` [Compound 117B, 2-[(4-{6-[(2,4-difluorobenzyl)oxy]pyridin-2-yl}piperidin-1-yl)methyl]-1-[(2S)-oxetan-2-ylmethyl]-1H-benzimidazole-6-carboxylic acid], the EC50 was found to be 530 nM in experiment [1] (CHO GLP-1R clone C6, cAMP HTRF) and 19 nM in experiment [2] (CHO GLP-1R clone H6, cAMP HTRF). Moreover, the Emax stood at 97% in experiment [1] and 76% in experiment [2].
In the case of `Cn1cnc(Cn2c(CN3CCC(c4cccc(OCc5ccc(Cl)cc5F)n4)CC3)nc3ccc(C(=O)O)cc32)c1` [Compound 255B, 2-[(4-{6-[(4-chloro-2-fluorobenzyl)oxy]pyridin-2-yl}piperidin-1-yl)methyl]-1-[(1-methyl-1H-imidazol-4-yl)methyl]-1H-benzimidazole-6-carboxylic acid], the half-maximal effective concentration (EC50) in experiment [1] (CHO GLP-1R clone C6, cAMP HTRF) worked out at 5800 nM; in experiment [2] (CHO GLP-1R clone H6, cAMP HTRF) it was 190 nM. The Emax worked out at 85% in experiment [1] and 62% in experiment [2].
For the molecule `O=C(O)c1ccc2nc(CN3CCC(c4cccc(OCc5ccc(Cl)cc5F)n4)CC3)n(Cc3ncco3)c2c1` [Compound 156B, 2-[(4-{6-[(4-chloro-2-fluorobenzyl)oxy]pyridin-2-yl}piperidin-1-yl)methyl]-1-(1,3-oxazol-2-ylmethyl)-1H-benzimidazole-6-carboxylic acid], the EC50 stood at 14 nM in experiment [1] (CHO GLP-1R clone C6, cAMP HTRF) and 0.96 nM in experiment [2] (CHO GLP-1R clone H6, cAMP HTRF). The Emax in experiment [1] was 95%; in experiment [2], 80%.
